Measured values: PubChem BioAssay (NCI)
Where “and” joins values, the source holds several entries; their conditions need not be identical. Equal entries are not always repeated.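 Test compounds were applied to cells in 96-well plates for 48 hours at 5 doses. Abbreviation: GI50, concentration required for 50% inhibition of growth. TGI: total growth inhibition.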 Where a SMILES comes first, the peptide text is derived from it. [ ]: non-standard residue; d: D form. The star is where a group is joined. ξ: configuration not given here. X6 = FC(F)(F)c1cc(NC(=S)*)cc(C(F)(F)F)c1; ξF = NC(Cc1ccccc1)C(=O)O

How the values were obtained:
Test in all cases: NCI-60 cell line screen, 48 h
RXF-631 renal = test system: RXF-631 renal
DLD-1 colon = test system: DLD-1 colon
HOP-18 NSCLC = test system: HOP-18 NSCLC
MDA-MB-435 = test system: MDA-MB-435
BT-549 breast = test system: BT-549 breast
T-47D breast = test system: T-47D breast
MDA-N = test system: MDA-N

Row | SMILES | TGI (RXF-631 renal) [µM] | TGI (DLD-1 colon) [µM] | TGI (HOP-18 NSCLC) [µM] | GI50 (MDA-MB-435) | TGI (MDA-MB-435) | GI50 (BT-549 breast) | TGI (BT-549 breast) | GI50 (T-47D breast) | TGI (T-47D breast) | TGI (MDA-N) [µM]
1 | COC1(OC)CCC2C1C1CCC(OC)(OC)C21 (centres undefined) | > 50 | > 50 | > 50 | – | – | – | – | – | – | –
2 | O=C1CC(c2ccc3c(c2)OCO3)Nc2ccccc21 (centres undefined) | – | – | – | 4.94 µM | 31.1 µM | 5.99 µM | 55.5 µM | 5.23 µM | 73.9 µM | –
3 | CC/C=C\CCC/C=C1/C(=O)C=C[C@@H]1C/C=C\CCCC(=O)OC | – | – | – | 2.49 µM | 6.39 µM | – | – | 5.16 µM | 19.2 µM | –
4 | Cc1cc(I)cc(CN(C)CCCCN2CCCCC2)c1O | – | – | – | 3.5 µM | 12.9 µM | 8.05 µM | 21.5 µM | 16.1 µM | 49.3 µM | –
5 | COc1cc(CNc2cnc3cc(N)cc(N)c3n2)cc(OC)c1 | – | – | – | 21.1 µM | 39.5 µM | 20.2 µM | 51.4 µM | – | – | –
6 | O=C1C(Cl)=C(Nc2cccc(Cl)c2)C(=O)N1Cc1ccc(Cl)cc1Cl | – | – | – | 1.24 µM | 16 µM | 0.0663 µM | 7.48 µM | 1.72 µM | > 41.8 µM | –
7 | Cc1ccc(N=Nc2ccc(N(CCC#N)CCC#N)cc2C)c(Br)c1 | 81.3 | > 100 | > 100 | – | – | – | – | – | – | –
8 | COC(=O)[C@@H](NC(=O)CNC(=O)[C@H]1CCCN1C(=O)C(Cc1ccccc1)NC(=S)Nc1cc(C(F)(F)F)cc(C(F)(F)F)c1)C(C)C (some centres undefined) (X6-[ξF][dP]GV-OMe) | – | – | – | 2.79 µM | 8.12 µM | 1.85 µM | 3.78 µM | 3.87 µM | 28.8 µM | –
9 | Cn1cc(C2=C(c3cn(C)c4ncccc34)C(=O)NC2=O)c2ccccc21 | – | – | – | 2.2 µM | > 25 µM | 6.97 µM | 22.2 µM | 7.56 µM | > 23.5 µM | –
10 | O=C(COc1ccc(Br)cc1Br)N1N=C(c2ccc([N+](=O)[O-])o2)CC1(O)c1ccccc1 (centres undefined) | – | 30.2 | 41 | – | – | – | – | – | – | –
11 | CCCCOC(=O)C1OC(O[C@H]2CCC3(C)C(CCC4(C)C3CC=C3C5CC(C)(C)CCC5(C(=O)O)CC[C@]34C)C2(C)C)C(OC2OC(CO)C(O)C(O)C2O)C(OC2OC(CO)C(O)C(O)C2O)C1O (some centres undefined) | – | – | – | 30.6 µM | 81 µM | 21.5 µM | 41.6 µM | 48 µM | > 100 µM | –
12 | CCCCCN(CCCCC)CCCNc1c2c(nc3ccc(Cl)cc13)CCCC2 | – | – | – | 2.23 µM | 6.56 µM | 11.2 µM | 23.4 µM | 2.6 µM | 6.17 µM | –
13 | CC1(C)CCc2c(c3c(c4c(=O)c(O)c(-c5ccc(O)cc5)oc24)OC(C)(C)CC3)O1 | – | – | – | > 100 µM | > 100 µM | – | – | 72.7 µM | > 100 µM | –
14 | Clc1ccc2c(NCCCCNc3nc(N4CCCCC4)nc4ccccc34)ccnc2c1 | – | – | – | 1.67 µM | 3.2 µM | 1.78 µM | 4.1 µM | 2.12 µM | 4.3 µM | –
15 | COc1cc(-c2nn(-c3ccc(NC(=O)c4ccc(Cl)c(C(F)(F)F)c4)cc3)cc2-c2ccncc2)ccc1Cl | – | – | – | 2.41 µM | > 100 µM | 3.08 µM | 32.5 µM | 2.98 µM | > 100 µM | –
16 | O=C(Nc1ccccc1OC(F)(F)F)Nc1n[nH]c2ccccc12 | – | – | – | 51.5 µM | > 100 µM | 76.4 µM | > 100 µM | 37.5 µM | > 100 µM | –
17 | C=C(CN1CCN(c2ccc(Cl)cc2F)CC1)c1ccc(C(=O)Nc2ccccc2N)cc1 | – | – | – | – | – | 2.99 µM | > 65.3 µM | – | > 100 µM | –
18 | O=S(=O)(NC1=NCCN1C(=S)SN1CCn2c1nsc2=S)c1ccc(OC(F)(F)F)cc1 | – | – | – | 4.47 µM | 24.5 µM | – | – | 13.9 µM | 44.4 µM | –
19 | COC1=CC(=O)c2nc(-c3ccncc3)[nH]c2C1=O | – | – | – | > 100 µM | > 100 µM | > 100 µM | > 100 µM | > 100 µM | > 100 µM | –
20 | CC1=C(C(=O)Nc2ccc(Cl)c(Cl)c2)C(c2cccc(Oc3ccccc3)c2)NC(=S)N1 (centres undefined) | – | – | – | 7.55 µM | 14.2 µM | 5.94 µM | 12.5 µM | 10.9 µM | 21.4 µM | –
21 | CC(C)CCC[C@@H](C)[C@H]1CC[C@H]2[C@@H]3CC=C4C[C@@H](C(C(=O)O)C(=O)O)CC[C@]4(C)[C@H]3CC[C@]12C | – | – | – | 0.0721 µM | 0.188 µM | 0.197 µM | 2.21 µM | 0.188 µM | 2.8 µM | –
22 | CCCCCCCCCCCOc1ccc(C(=O)C(=O)c2ccc(OCCCCCCCCCCC)c(OCCCCCCCCCCC)c2)cc1OCCCCCCCCCCC | – | > 100 | – | – | – | – | – | – | – | –
23 | COc1ccc2c(C3=C(c4cn(C)c5ccccc45)C(=O)NC3=O)cn(C)c2c1 | – | – | – | – | – | – | > 25 µM | – | – | –
24 | C#Cc1ccc(-n2c(/C=C/c3ccc(C(F)(F)F)cc3)nc3ncccc3c2=O)cc1 | – | – | – | 2.27 µM | 6.48 µM | 1.71 µM | 3.37 µM | 2.02 µM | 4.97 µM | –
25 | COc1ccccc1C12OC(=O)C1(C)Oc1ccccc1C2=O (centres undefined) | > 100 | > 100 | – | – | – | – | – | – | – | –
26 | COc1cc(Cc2cnc(/N=C3\C(=O)N(CN4CCN(c5c(F)cc6c(=O)c(C(=O)O)cn(C7CC7)c6c5OC)CC4C)c4ccc(F)cc43)nc2N)cc(OC)c1OC (centres undefined) | – | – | – | 14.2 µM | 32.9 µM | 19.7 µM | 49.2 µM | 2.85 µM | 24.3 µM | –
27 | CCOC(=O)CN1C(=O)c2cccc3cc([N+](=O)[O-])cc(c23)C1=O | – | 5.43 | 33.8 | – | – | – | – | – | – | –
28 | O=C(/C=C/C12c3ccccc3C(c3ccccc31)C1C(=O)NC(=O)C12)c1ccncc1 (centres undefined) | – | – | – | 2.9 µM | 8.36 µM | 2.06 µM | 5.93 µM | 2.82 µM | 12.9 µM | –
29 | c1ccc2cc(-c3cc(-c4cc(-c5ccc6ccccc6c5)on4)no3)ccc2c1 | – | – | – | – | > 100 µM | – | > 100 µM | – | > 100 µM | > 100
30 | O=C(Nc1ccc(Cl)c(Cl)c1)Nc1ccc(Cl)c(Cl)c1 | – | – | – | 3.06 µM and 2.8 µM | 11.4 µM and 8.8 µM | 1.72 µM and 4.01 µM | 5.96 µM and 31.6 µM | 2.01 µM and 4.22 µM | 8.12 µM and 49 µM | –
